# Assay results: PubChem BioAssay AID330 (DTP/NCI, 2004)
# Values joined by “and” are separate entries in the source; they are usually repeats but may differ in a detail not shown here. Equal values may be shown once. Inconclusive results and toxic doses are left out.
# Test system: P388 leukemia ip, CD2F1 mice, survival T/C
# Assay: NCI In Vivo Anticancer Drug Screen. Data for tumor model P388 Leukemia (intraperitoneal) in CD2F1 (CDF1) mice
# Details: endpoint: median survival time, higher = longer survival
# Procedure, shortened: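 Mice carrying the transplanted tumor received test compound or vehicle. Survival was recorded in each group, and the value is the treated-group measurement divided by that of the vehicle-treated control group.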
# [1] = dose: 60.0 mg/kg/injection, schedule: Q01DX005 (ip), vehicle: saline with Tween-80
# [2] = dose: 1.56 mg/kg/injection, schedule: Q01DX009 (ip), vehicle: saline
# [3] = dose: 25.0 mg/kg/injection, schedule: Q01DX009 (ip), vehicle: saline with Tween-80
# [4] = dose: 50.0 mg/kg/injection, schedule: Q01DX009 (ip), vehicle: saline with Tween-80
# [5] = dose: 120.0 mg/kg/injection, schedule: Q01DX005 (ip), vehicle: saline with Tween-80
# [6] = dose: 12.5 mg/kg/injection, schedule: Q04DX003 (ip), vehicle: saline with Tween-80
# [7] = dose: 25.0 mg/kg/injection, schedule: Q04DX003 (ip), vehicle: saline with Tween-80
# [8] = dose: 240.0 mg/kg/injection, schedule: Q01DX005 (ip), vehicle: saline with Tween-80
# [9] = dose: 6.25 mg/kg/injection, schedule: Q01DX009 (ip), vehicle: saline
# [10] = dose: 50.0 mg/kg/injection, schedule: Q01DX009 (ip), vehicle: saline
smiles,measurement,setting,value
O=C(O)c1ccccc1C(=O)Nc1ccccc1C(F)(F)F,T/C,"dose: 178.0 mg/kg/injection, schedule: Q01DX009 (ip), vehicle: saline with Tween-80",110 % of control
same,T/C,"dose: 266.0 mg/kg/injection, schedule: Q01DX009 (ip), vehicle: saline with Tween-80",104 % of control
same,T/C,"dose: 400.0 mg/kg/injection, schedule: Q01DX009 (ip), vehicle: saline with Tween-80",101 % of control
Nc1nn2nnnc2c2ccccc12,T/C,"dose: 25.0 mg/kg/injection, schedule: Q04DX002 (ip), vehicle: saline",107 % of control
same,T/C,"dose: 50.0 mg/kg/injection, schedule: Q04DX002 (ip), vehicle: saline",96 % of control
same,T/C,"dose: 100.0 mg/kg/injection, schedule: Q04DX002 (ip), vehicle: saline",101 % of control and 89 % of control
same,T/C,"dose: 400.0 mg/kg/injection, schedule: Q04DX002 (ip), vehicle: saline",92 % of control
Cc1ccc(C)c(NC(=O)C#N)c1,T/C,[1],93 % of control
CC(C)NCCCNc1c2ccccc2nc2cccc([N+](=O)[O-])c12,T/C,"dose: 0.09 mg/kg/injection, schedule: Q01DX009 (ip), vehicle: saline",100 % of control and 86 % of control
same,T/C,"dose: 0.19 mg/kg/injection, schedule: Q01DX009 (ip), vehicle: saline",100 % of control and 97 % of control
same,T/C,"dose: 0.39 mg/kg/injection, schedule: Q01DX009 (ip), vehicle: saline",100 % of control and 106 % of control and 92 % of control
same,T/C,"dose: 0.79 mg/kg/injection, schedule: Q01DX009 (ip), vehicle: saline",105 % of control and 123 % of control and 90 % of control
same,T/C,[2],109 % of control
CC(C#N)CCCC#N (stereo not given),T/C,"dose: 12.5 mg/kg/injection, schedule: Q01DX009 (ip), vehicle: saline with Tween-80",100 % of control
same,T/C,[3],100 % of control
same,T/C,[4],100 % of control
C[P+](C)(C)C,T/C,[1],87 % of control
same,T/C,[5],93 % of control
CC(=S)NC(O)C(=O)c1ccccc1 (stereo not given),T/C,[4],121 % of control
NC(=S)N/N=C1/CCCC/C1=N/O,T/C,[1],100 % of control
same,T/C,[5],100 % of control
FC(F)(F)c1ccccc1NC(=S)SCc1ccccc1,T/C,"dose: 50.0 mg/kg/injection, schedule: Q01DX009 (ip), vehicle: suspension in saline",91 % of control
same,T/C,"dose: 100.0 mg/kg/injection, schedule: Q01DX009 (ip), vehicle: suspension in saline",90 % of control
same,T/C,"dose: 200.0 mg/kg/injection, schedule: Q01DX009 (ip), vehicle: suspension in saline",90 % of control
O=C(C=C(C(F)(F)F)C(F)(F)F)c1ccc(Cl)c2ccccc12,T/C,[6],113 % of control
same,T/C,[7],118 % of control
CCCCCCCCCCCCCCC1(O)OC(=O)C(C)=C1C (stereo not given),T/C,[6],106 % of control
same,T/C,[7],103 % of control
same,T/C,"dose: 50.0 mg/kg/injection, schedule: Q04DX003 (ip), vehicle: saline with Tween-80",106 % of control
CCC/C(=N\NC(=S)N1CCN(c2ccccn2)CC1)c1ccccn1,T/C,"dose: 6.25 mg/kg/injection, schedule: Q01DX005 (ip), vehicle: saline with Tween-80",102 % of control and 104 % of control
same,T/C,"dose: 12.5 mg/kg/injection, schedule: Q01DX005 (ip), vehicle: saline with Tween-80",107 % of control and 110 % of control
O=[N+]([O-])c1cccc(S(=O)(=O)N/N=C/c2cc([N+](=O)[O-])cc(I)c2O)c1,T/C,[1],103 % of control
same,T/C,[5],95 % of control
same,T/C,[8],111 % of control
COc1ccc(-c2cc(=O)c3c(O)cc(O)c(-c4cc(-c5cc(=O)c6c(O)cc(OC)cc6o5)ccc4OC)c3o2)cc1,T/C,"dose: 50.0 mg/kg/injection, schedule: Q01DX005 (ip), vehicle: Klucel (hydroxypropylcellulose) (HPC)",105 % of control
same,T/C,"dose: 100.0 mg/kg/injection, schedule: Q01DX005 (ip), vehicle: Klucel (hydroxypropylcellulose) (HPC)",99 % of control
same,T/C,"dose: 200.0 mg/kg/injection, schedule: Q01DX005 (ip), vehicle: Klucel (hydroxypropylcellulose) (HPC)",88 % of control
COc1cc2c(c3oc4c(O)cccc4c(=O)c13)CC(C(C)(O)CCl)O2 (stereo not given),T/C,"dose: 2.0 mg/kg/injection, schedule: Q01DX009 (ip), vehicle: saline + alcohol",113 % of control
same,T/C,"dose: 4.0 mg/kg/injection, schedule: Q01DX009 (ip), vehicle: saline + alcohol",112 % of control
Cc1c(-c2ccccc2)ccnc1/C=N/NC(=S)Nc1ccccc1,T/C,[2],89 % of control
same,T/C,"dose: 3.12 mg/kg/injection, schedule: Q01DX009 (ip), vehicle: saline",92 % of control
same,T/C,[9],88 % of control and 95 % of control
same,T/C,[3],89 % of control
same,T/C,[4],89 % of control
same,T/C,[10],86 % of control
CC(C)(C)c1cc(C(C)(C)C)c2oc(C(=O)O)cc(=O)c2c1,T/C,[10],95 % of control
same,T/C,"dose: 100.0 mg/kg/injection, schedule: Q01DX009 (ip), vehicle: saline",97 % of control
O=C1C2=C(OCCO2)C(=O)C2=C1OCO2,T/C,[1],109 % of control
same,T/C,[5],107 % of control
same,T/C,[8],88 % of control
N/C(=N\C(O)C(Cl)(Cl)Cl)SCNC(=O)NCS/C(N)=N/C(O)C(Cl)(Cl)Cl (stereo not given),T/C,"dose: 50.0 mg/kg/injection, schedule: Q01DX005 (ip), vehicle: saline with Tween-80",105 % of control
same,T/C,"dose: 100.0 mg/kg/injection, schedule: Q01DX005 (ip), vehicle: saline with Tween-80",100 % of control
same,T/C,"dose: 200.0 mg/kg/injection, schedule: Q01DX005 (ip), vehicle: saline with Tween-80",95 % of control
CC1(C(=O)O)CCC2(C(=O)O)CCC3(C)C(=CCC4C5(C)CC(O)C(O)C(C)(CO)C5CCC43C)C2C1 (stereo not given),T/C,[9],100 % of control
same,T/C,"dose: 12.5 mg/kg/injection, schedule: Q01DX009 (ip), vehicle: saline",100 % of control
same,T/C,"dose: 25.0 mg/kg/injection, schedule: Q01DX009 (ip), vehicle: saline",96 % of control
CC[n+]1cccc(C(=O)c2ccccc2)c1,T/C,"dose: 3.75 mg/kg/injection, schedule: Q01DX005 (ip), vehicle: saline",103 % of control
same,T/C,"dose: 7.5 mg/kg/injection, schedule: Q01DX005 (ip), vehicle: saline",97 % of control
same,T/C,"dose: 15.0 mg/kg/injection, schedule: Q01DX005 (ip), vehicle: saline",102 % of control
same,T/C,"dose: 30.0 mg/kg/injection, schedule: Q01DX005 (ip), vehicle: saline",105 % of control
Cc1cc(NCCN(C(C)C)C(C)C)nc(/N=C(\N)Nc2ccc(Cl)c(C(F)(F)F)c2)n1,T/C,"dose: 10.0 mg/kg/injection, schedule: Q04DX003 (ip), vehicle: Klucel (hydroxypropylcellulose) (HPC)",107 % of control and 123 % of control
same,T/C,"dose: 20.0 mg/kg/injection, schedule: Q04DX003 (ip), vehicle: Klucel (hydroxypropylcellulose) (HPC)",123 % of control
CCc1cccc(C)c1NC(=O)CCC(=O)OC,T/C,[1],102 % of control
same,T/C,[5],97 % of control
same,T/C,[8],96 % of control
O=[N+]([O-])c1cccnc1Sc1ncccn1,T/C,"dose: 100.0 mg/kg/injection, schedule: Q04DX003 (ip), vehicle: saline with Tween-80",100 % of control
same,T/C,"dose: 200.0 mg/kg/injection, schedule: Q04DX003 (ip), vehicle: saline with Tween-80",100 % of control
same,T/C,"dose: 400.0 mg/kg/injection, schedule: Q04DX003 (ip), vehicle: saline with Tween-80",100 % of control
Cc1nnc(Cc2ccccc2)c2n[nH]c(C)c12,T/C,"dose: 50.0 mg/kg/injection, schedule: Q01DX009 (ip), vehicle: Klucel (hydroxypropylcellulose) (HPC)",98 % of control
same,T/C,"dose: 100.0 mg/kg/injection, schedule: Q01DX009 (ip), vehicle: Klucel (hydroxypropylcellulose) (HPC)",103 % of control
same,T/C,"dose: 200.0 mg/kg/injection, schedule: Q01DX009 (ip), vehicle: Klucel (hydroxypropylcellulose) (HPC)",95 % of control
Nc1nc(-c2ccccn2)cc2ccccc12,T/C,[1],105 % of control
same,T/C,[5],100 % of control
CC1([CH2][Hg][Cl])Cc2ccccc2O1 (stereo not given),T/C,"dose: 0.78 mg/kg/injection, schedule: Q01DX009 (ip), vehicle: saline with Tween-80",91 % of control
same,T/C,"dose: 1.56 mg/kg/injection, schedule: Q01DX009 (ip), vehicle: saline with Tween-80",95 % of control
same,T/C,"dose: 3.13 mg/kg/injection, schedule: Q01DX009 (ip), vehicle: saline with Tween-80",86 % of control
COC(=O)c1cc(=O)n2cnc3c(ncn3C3OC(CO)C(O)C3O)c2c1 (stereo not given),T/C,"dose: 100.0 mg/kg/injection, schedule: Q04DX003 (ip), vehicle: saline",98 % of control
same,T/C,"dose: 200.0 mg/kg/injection, schedule: Q04DX003 (ip), vehicle: saline",100 % of control
same,T/C,"dose: 400.0 mg/kg/injection, schedule: Q04DX003 (ip), vehicle: saline",100 % of control
N=C1CCCS1,T/C,"dose: 25.0 mg/kg/injection, schedule: Q01DX005 (ip), vehicle: saline",115 % of control
same,T/C,"dose: 100.0 mg/kg/injection, schedule: Q01DX005 (ip), vehicle: saline",150 % of control
O=C(CCl)Nc1ccc(Cl)cc1C(=O)c1ccccc1,T/C,[4],107 % of control
same,T/C,"dose: 100.0 mg/kg/injection, schedule: Q01DX009 (ip), vehicle: saline with Tween-80",98 % of control
same,T/C,"dose: 200.0 mg/kg/injection, schedule: Q01DX009 (ip), vehicle: saline with Tween-80",104 % of control
COC(=O)C1CC(OC(C)=O)C(O)C(O)C1OC(C)=O.[O]=[Os]=[O] (stereo not given),T/C,"dose: 200.0 mg/kg/injection, schedule: Q01DX001 (ip), vehicle: saline",123 % of control
